Experimental data published in patent US20060252740A1 (priority 2005, published 2006).

Experiments:
[1] = system: adult patients with solid tumors; settings: patients treated at 56 mg/m^2; cited from earlier work
[2] = Cellular assays (potency of 17-AAG versus 17-AG); type: cell-based
clinical = assay: clinical
Procedure: PK assessments included the following tests. […] The total number of PK samples collected was approximately 115 mL of whole blood (7-8 tablespoons). If a patient experienced a potentially drug-related SAE, additional PK samples were collected. Blood was drawn from the contralateral arm to the infusion site using an indwelling catheter to avoid multiple needle sticks. […] The blood tube was inverted several times and the tube placed in wet ice immediately pending separation of the plasma. If a catheter was used for blood collection, the fluid in the catheter was completely withdrawn prior to each sample collection and discarded. Plasma samples were kept on wet ice during collection and centrifugation. Plasma samples were split into two cryovials prior to freezing at −70° C.

[3] = system: patients with advanced solid tumors; settings: 80 mg/m^2 dose level, cited from earlier work
[4] = system: patients with advanced solid tumors; settings: population PK analysis; cited from earlier work
MM cells = settings: cited from earlier work
[5] = 17-AG metabolite, Cohorts 3 & 4, 17-AAG 150 mg/m^2, Max
[6] = 17-AG metabolite, Cohorts 3 & 4, 17-AAG 150 mg/m^2, Median
[7] = 17-AG metabolite, Cohorts 3 & 4, 17-AAG 150 mg/m^2, Min

CO[C@H]1/C=C\C=C(/C)C(=O)NC2=CC(=O)C(N)=C(C[C@@H](C)C[C@H](OC)[C@H](O)[C@@H](C)/C=C(\C)[C@@H]1OC(N)=O)C2=O [17-AG, 17-aminogeldanamycin]
Clearance [1]: 30.8 L/h/m^2
VZ [1]: 203 L/m^2
average AUC [1]: 5,558 nM*h
average t1/2 [1]: 8.6 h
relative potency of 17-AAG and 17-AG [2]: equipotent in cellular assays
AUCext (clinical; [5]): 16.0%
AUCextra (clinical; [5]): 2,604 ng/mL * h
AUCtotal (clinical; [5]): 16,323 ng/mL * h
Lz (clinical; [5]): 0.1512
AUCext (clinical; [6]): 5.0%
AUCtotal (clinical; [6]): 3,253 ng/mL * h
Lz (clinical; [6]): 0.1200
AUCext (clinical; [7]): 2.2%
AUCtotal (clinical; [7]): 980 ng·h/mL
Lz (clinical; [7]): 0.0765
average ratio of AUCtotal for the 17-AG to AUCtotal for the parent drug 17-AAG (clinical; data of Tables 2 and 3, cohorts 1-4): 82.5±90.5%
AUC(0-t) (clinical; human, plasma, intravenous, 100 mg/m2, AUClast, 17-AG metabolite, Cohorts 1 & 2, 17-AAG 100 mg/m^2, Mean): 3480 ng·h/mL
half-life (clinical; human, plasma, intravenous, Terminal elimination half-life, 17-AG metabolite, cohorts 1-4 combined): 6.52 ± 1.74 h
elimination in plasma profiles (clinical; plasma profiles after 17-AAG infusion): much slower elimination
t1/2 [3]: 1.75 h
Cmax ([3]; read-out: plasma Cmax): 607 nM
Clearance [4]: 21.3 L/h

CC(C)C[C@H](NC(=O)[C@H](Cc1ccccc1)NC(=O)c1cnccn1)B(O)O [bortezomib]
stress response of MM cells (MM cells; pre-clinical studies): triggers significant Hsp90 up-regulation
effect on drug resistance of MM cells (MM cells; preclinical and clinical studies): can overcome resistance of MM cells to conventional or high-dose cytotoxic chemotherapy
